# Data from patent US20060270727A1, “Small molecule therapeutics and uses therefor” (priority 2005, published 2006).
# What was measured:
# Format in all cases: cell-based, human
# [1] = tested on: GM15851 normal lymphoid cells; assay: DNA microarray of global gene expression, normal cells; conditions: for number of genes with affected mRNA levels: P≦0.005
# Experimental: (§1) Effects of Polyamides on Global Gene Expression. DNA microarray analyses (see Example 10) were performed with RNA isolated from GM15850 FRDA and GM15851 normal lymphoid cells that were either untreated or treated with polyamides FA1 (at 1 and 2 μM) or FA2 (at 2 μM) for 7 days on Affymetrix Human Genome U133 Plus 2.0 GeneChips®. These chips contain […] oligonucleotides representing all or nearly all of the genes in the human genome). Experiments were conducted according to manufacturer guidelines. […] Although more genes were judged affected by FA1 at 1 μM than at 2 μM, this difference is largely due to genes whose mRNA levels change by less than […] in either direction, and thus are not highly significant. At 2 μM FA1, 15 genes were increased in expression by greater than 50% and one gene was decreased by 45%. […] For GM15851 cells, two genes were up regulated by FA1, and no genes were down regulated. (Note that the probability that the genes affected in GM15851 cells would be judged significant by chance at P≦0.005 is 0.8-1.0, based on analysis with BRB ArrayTools). […] Strikingly, binding sites for FA1 (5′-AAGAAGAAG-3′, SEQ ID NO: ______) are present in 18/20 genes whose mRNA levels are increased by 1.2-fold or greater in GM15850 cells, although this sequence would be expected to appear at random only once per 262,000 bp in genomic DNA.
# (§2) DNA Microarrays. FRDA and control lymphoid cells (i.e., lines GM15850 and GM15851, respectively) were incubated with polyamides FA1 (at 1 or 2 μM) or FA2 (at 2 μM), or in the absence of polyamide, in triplicate for seven days prior to RNA purification and microarray analysis. Affymetrix U133A Plus 2.0 GeneChips® were hybridized in groups of eight for each of the three replicates. Raw GeneChip® data were normalized with RMAExpress (Bolstad et al., 2003, Bioinformatics 19:185-193) and the normalized data was filtered to remove probesets called absent on 24 of 24 chips from class comparisons. The Affymetrix probeset-level data was imported to BRB Arraytools (v3.3.0 Beta 3a) selecting the U133 chips used in the experiment and leaving all filters off. For class comparisons between groups of arrays, unpaired samples were used and the random variance model was selected, with the univariate significance threshold set to 0.005. The restrictions for the univariate test were maintained as the default values of 10 for the maximum number of false discovered genes, 0.1 for the maximum proportion of false discoveries, and a 90% confidence level. Because of poor data correlation in one set of replicates, class comparisons were performed using all chips for the control group versus two of the three replicates for the treatment group (i.e., five groups are the minimum number required for class comparisons).
# [2] = tested on: frataxin mRNA in GM15850 FRDA lymphoid cell line; assay: qRT-PCR of frataxin mRNA, FRDA cell line; conditions: for effect on frataxin mRNA levels, in words: GM15850 FRDA cell line, 7 days incubation
# From the text: (§3) GAA Specific Polyamides Up Regulate Frataxin mRNA and Protein. To assess whether polyamides alleviate transcription inhibition caused by expanded GAA repeats in the frataxin gene, quantitative real time/reverse transcriptase PCR (qRT-PCR) was used to monitor frataxin mRNA levels in the GM15850 and GM15851 lymphoid cell lines described above; levels of glyceraldehyde 3-phosphate dehydrogenase (GAPDH) mRNA were used as an internal control for each RNA sample; see Example 8. No differences in GAPDH were found between the two cell lines. […] No changes in frataxin mRNA levels were observed on shorter incubation times.
# Cell Culture. Epstein Barr virus transformed lymphoblast cell lines GM15850 from a FRDA patient (alleles with 650 and 1030 GAA repeats in the frataxin gene, from the Coriell Cell Repository, Camden, N.J.), and GM15851 from an unaffected sibling (normal range of repeats), were propagated in RMPI 1640 medium with 2 mM L-glutamine and 15% fetal bovine serum at 37° C. in 5% CO2. Cell growth and morphology were monitored by phase contrast microscopy and viability by trypan blue exclusion and an ATP assay (ApoSENSOR™, BioVision). Polyamides were added directly to the culture medium in PBS. Nuclear localization of the polyamides was verified by deconvolution microscopy, by methods well known in the art (see e.g., Dudouet et al., Chem. Biol., 2003, 10: 859-867).
# (§4) Real-Time Quantitative RT-PCR. Real-time quantitative RT-PCR (qRT-PCR) analysis was performed essentially as previously described (Chuma, et al., 2003, Hepatology 37:198-207), using the following primers for the frataxin gene: […]
# (§5) RNA was standardized by quantification of GAPDH mRNA (Pattyn et al., 2003, Nucleic Acids Res. 31:122-123), and all values are expressed relative to GAPDH. qRT-PCR was performed using iScript One-Step RT-PCR kit with SYBR green (Biorad). Statistical analysis was performed on three independent quantitative RT-PCR experiments for each RNA sample.
# [3] = tested on: frataxin mRNA in GM15851 normal lymphoid cell line; assay: qRT-PCR of frataxin mRNA, normal cell line
# From the text: as §3
# Cell Culture. […] Cell growth and morphology were monitored by phase contrast microscopy and viability by trypan blue exclusion and an ATP assay (ApoSENSOR™, BioVision). […]
# as §4, §5
# [4] = tested on: GM15850 FRDA lymphoid cells; assay: DNA microarray of global gene expression, FRDA cells; conditions: for number of genes with affected mRNA levels: P≦0.005; for gene expression profile approaching that of untreated GM15851 cells, in words: FA1 at 1 μM, FA2 at 2 μM
# Experimental: as §1, §2
structure (smiles),measurement,setting,value
"CN(C)CCCNC(=O)CCNC(=O)c1nc(NC(=O)CCNC(=O)c2cc(NC(=O)c3nc(NC(=O)CCNC(=O)c4cc(NC(=O)c5nccn5C)cn4C)cn3C)cn2C)cn1C [FA1, ImPyβImPyβImβDp]",genes down regulated,[1],no genes
same,genes up regulated,[1],two genes
same,number of genes with affected mRNA levels,[1]; 7 days,two genes
same,frataxin mRNA as % of the level in the normal cell line,"[2]; GM15850, 2 μM",≤ 45%
same,range of fold increases of frataxin mRNA in numerous experiments,"[2]; GM15850, 2 μM",2.0 to 3.6 fold
same,increase of frataxin mRNA level,"[2]; GM15850, 2 μM, 7 days, relative to GAPDH",2.5 fold
same,"effect on frataxin mRNA levels, in words",[2],increased frataxin mRNA levels
same,time for frataxin mRNA to decrease to pre-treatment levels after removal of polyamide,"[2]; after induction 7 days, transfer to fresh medium lacking polyamide",96 h
same,effect of higher concentrations or longer incubation on frataxin transcription,"[2]; compared with 2 μM, 7-day incubation",Neither higher concentrations of FA1 nor longer incubations times increased frataxin transcription
same,"effect on frataxin mRNA levels, in words",[3],did not change frataxin mRNA levels
same,genes with comparable changes (>50% increase or 45% decrease) in mRNA levels,[4]; 1 μM,three genes
same,number of genes with affected mRNA levels,"[4]; 1 μM, 7 days",51 genes
same,frataxin mRNA level as % of that found in GM15851 cells (microarray),[4]; 2 μM,42%
same,genes decreased in expression (by 45%),[4]; 2 μM,one gene
same,genes increased in expression by greater than 50%,[4]; 2 μM,15 genes
same,increase of frataxin mRNA (microarray),"[4]; 2 μM, 7 days",2.5 fold
same,number of genes with affected mRNA levels,"[4]; 2 μM, 7 days",16 genes
same,slope of gene expression profile correlation vs untreated GM15851 cells,"[4]; 2 μM, untreated FRDA cells 0.97",0.69
same,"gene expression profile approaching that of untreated GM15851 cells, in words",[4],seen to a lesser degree
"CN(C)CCCNC(=O)CCNC(=O)c1cc(NC(=O)CCNC(=O)c2nc(NC(=O)c3nc(NC(=O)CCNC(=O)c4cc(NC(=O)c5nccn5C)cn4C)cn3C)cn2C)cn1C [FA2, ImPyβImImβPyβDp]",transcript levels for frataxin (microarray),"[1]; 2 μM, 7 days",not changed
same,number of genes with affected mRNA levels,[1]; 7 days,one gene
same,"effect on frataxin mRNA levels, in words",[2],modest increase in frataxin transcription
same,"effect on frataxin mRNA levels, in words",[3],no change in frataxin mRNA
same,transcript levels for frataxin (microarray),"[4]; 2 μM, 7 days",not changed
same,number of genes with affected mRNA levels,"[4]; 2 μM, 7 days",three genes
same,"gene expression profile approaching that of untreated GM15851 cells, in words",[4],not seen
